# Patent publication US9540378B2, “Composition comprising purine derivatives or salt thereof for preventing or treating atopic dermatitis” (DAEWOONG CO., LTD., priority 2012, dated 2017)
# Marks after values point to notes of the source that are not given here.
# Experiments:
# [1] = tested on: IL-12p40; assay: Inhibition of inflammatory cytokine mRNA expression (RT-PCR) in LPS-treated Raw264.7 cells: IL-12p40; format: cell-based, mouse; conditions: 400 uM, LPS 1 ug/ml, 24 hours
# Method: (§1) The inhibitory activity of the compound of Formula 1 was evaluated against the expressions of inflammatory cytokines of atopic dermatitis, i.e., IL-6, IL-10, IL-12p40, and COX-2. Briefly, the Raw264.7 mouse macrophage cell line (ATCC TIB-71) (about 1×10^6 cells) was added into the each well of a 12-well plate and then incubated in a RPMI medium supplemented with 100 U/ml penicillin, 100 ug/ml streptomycin and 10% fetal bovine serum. The cells were treated with the compound of Formula 1 (400 uM) and LPS (1 ug/ml), and then incubated under the condition of 37° C., 5% CO2 for 24 hours. The cells isolated from each group of the medium were treated with a Trizol reagent to extract the total RNA. Each cDNA was prepared according to the vendor's instruction, using a First strand cDNA synthesis kit (Fermentas). The resulting cDNAs (in the same amount for each cDNA) were subject to PCR amplification. The sense and antisense primers used were prepared according to the disclosures, i.e., Zhi-Qiang Chang et al., J. Nutr. Sci. Vitaminol., 2011, 27, p 118-122, JiYeon Lee et al., Biol. Pharm. Bull., 2007, 30(11), p 2043-2051, E. V. Maryukhnich et al., Biol. Sci., 2007, 414, p 242-245. […]
# [2] = tested on: IL-10; assay: Inhibition of inflammatory cytokine mRNA expression (RT-PCR) in LPS-treated Raw264.7 cells: IL-10; format: cell-based, mouse; conditions: 400 uM, LPS 1 ug/ml, 24 hours
# Method: as §1
# [3] = tested on: NC/Nga mice, animal models of atopic dermatitis; assay: In vivo inhibitory activity against atopic dermatitis in 2,4-DNFB-induced NC/Nga mice; conditions: for Reducing ratio (%) Dermatitis score: applied on affected sites twice per day for 10 days; for Reducing ratio (%) Dermatitis score / Reducing ratio (%) Difference of left and right ear thicknesses / Reducing ratio (%) Epidermis thickness / Reducing ratio (%) Number of mast cells / Reducing ratio (%) Serum IgE level: vs atopic control group; for Reducing ratio (%) Difference of left and right ear thicknesses / Reducing ratio (%) Epidermis thickness / Reducing ratio (%) Number of mast cells / Reducing ratio (%) Serum IgE level: topical, 10 days
# Method: NC/Nga mice (male, 6 weeks old), animal models of atopic dermatitis, were subject to complete hair removal of the back skin, and then left for 24 hours for healing the minute wounds on the skin. Atopic dermatitis was induced to the mice as follows. That is, a 0.2% solution of 2,4-DNFB (2,4-dinitrofluorobenzene) was prepared by dissolving in a mixed solvent of acetone and olive oil (3:1, v/v). The solution (150 μl) was applied on the hair-removed site of each mouse twice per week for 4 weeks, to induce atopic dermatitis.
# The normal control group (NC) was subject to only complete hair removal of the back skin. In case of the atopic dermatitis-induced atopic control group (AC), only Vaseline was applied on the hair-removed sites. […] Each group includes 8 mice.
# The therapeutic activity against atopic dermatitis was evaluated through measuring dermatitis scores, epidermis thicknesses, left and right ear thicknesses, serum IgE levels, and numbers of mast cells.
# The dermatitis scores were determined by observing the affected sites at the time when the treatments were completed, and then evaluating the visual changes such as erythema, bleeding, scab, etc., so as to yield the scores ranging from 1 to 10. From the resulting dermatitis scores, the inhibition ratio of each test group was calculated in comparison with the atopic control group.
# Skin tissue was taken in a size of 1 cm×1 cm from the central area of each affected site, fixed with 10% formaldehyde solution, embedded in paraffin film, and then cut into a 4 μm section. Each tissue section was subject to hematoxylin-eosin (H&E) staining, and then observed with an optical microscope (×200, 5 sites per tissue) so as to calculate the epidermis thickness thereof.
# The left and right ear thicknesses were measured with a digital vernier caliper, at the time when the test was started and at the time when the test was completed.
# The serum IgE level was measured in the blood collected from the heart of each group mice, according to ELISA (Enzyme-linked immunosorbent assay) methods.
# Skin tissue was taken in a size of 0.5 cm×1 cm from the central area of each affected site, fixed with IHC zinc fixative formalin-free solution, embedded in paraffin film, and then cut into a 4 μm section. Each tissue section was adhered on a slide coated with poly-L-lysine, followed by removing the paraffin and hydrating. Each resulting section was subject to toluidine blue staining, and then observed with an optical microscope (×200, 3 sites per tissue) so as to measure the number of mast cells.
# All measurement values were calculated in mean±standard deviation. Statistical significances were determined with ANOVA. ≦5% is considered as being statistically significant.
# [4] = tested on: COX-2; assay: Inhibition of inflammatory cytokine mRNA expression (RT-PCR) in LPS-treated Raw264.7 cells: COX-2; format: cell-based, mouse; conditions: 400 uM, LPS 1 ug/ml, 24 hours
# Method: as §1
# [5] = tested on: IL-6; assay: Inhibition of inflammatory cytokine mRNA expression (RT-PCR) in LPS-treated Raw264.7 cells: IL-6; format: cell-based, mouse; conditions: 400 uM, LPS 1 ug/ml, 24 hours
# Method: as §1
# [6] = 0.03% and 0.1%, applied on affected sites for 10 days
smiles,measurement,setting,value
"Cn1c(N)nc2c(ncn2C)c1=O [compound of Formula 1, 2-amino-1,9-dimethylpurin-6-one]",IL-12p40 mRNA expression level,[1],effectively inhibited
same,IL-10 mRNA expression level,[2],effectively inhibited
same,"dermatitis scores, in words",[3]; [6],significantly reduced
same,"differences of left and right ear thicknesses, in words",[3]; [6],significantly reduced
same,"epidermis thicknesses, in words",[3]; [6],significantly reduced
same,"numbers of mast cells, in words",[3]; [6],significantly reduced
same,"serum IgE levels, in words",[3]; [6],significantly reduced
same,Reducing ratio (%) Dermatitis score,[3]; Test group 1 (0.03%),8.96* %
same,Reducing ratio (%) Difference of left and right ear thicknesses,[3]; Test group 1 (0.03%),7.69%
same,Reducing ratio (%) Epidermis thickness,[3]; Test group 1 (0.03%),36.13*** %
same,Reducing ratio (%) Number of mast cells,[3]; Test group 1 (0.03%),7.7%
same,Reducing ratio (%) Serum IgE level,[3]; Test group 1 (0.03%),51.76%
same,Reducing ratio (%) Dermatitis score,[3]; Test group 2 (0.1%),24.00*** %
same,Reducing ratio (%) Difference of left and right ear thicknesses,[3]; Test group 2 (0.1%),38.46%
same,Reducing ratio (%) Epidermis thickness,[3]; Test group 2 (0.1%),52.63*** %
same,Reducing ratio (%) Number of mast cells,[3]; Test group 2 (0.1%),24.9** %
same,Reducing ratio (%) Serum IgE level,[3]; Test group 2 (0.1%),56.46** %
same,COX-2 mRNA expression level,[4],effectively inhibited
same,IL-6 mRNA expression level,[5],effectively inhibited
